Data as given in patent US8759372B2, “N-(5S,6S,9R)-amino-6-(2,3-difluorophenyl)-6,7,8,9-tetrahydro-5H-ctclohepta[b]Pyridin-9-yl-4-(2-oxo-2,3-dihydro-1H-imidazo[4,5-b]pyridin-1-carboxylate salt” (Bristol-Myers Squibb Company, priority 2012, dated 2014).
Counter-ions that a name gives are not always drawn. Like-named read-outs stand apart in the source and are kept apart here.

Columns and labels:
[1] = Solid state stability study; assay type: physicochemical
Experimental: The solid state stability of Example 1 was tested by exposing samples to various temperature and relative humidity conditions for periods of 1, 2, and 4 weeks.

[2] = Moisture sorption isotherm; assay type: physicochemical; settings: for moisture sorption weight gain: 25° C.
Experimental: Example 1 has moisture sorption weight gains of 0.8 weight % and 2.8 weight % between 25% and 75% relative humidity and 5% and 95% relative humidity, respectively.
Moisture sorption isotherms were collected in a VTI SGA-100 Symmetric Vapor Analyzer using approximately 10 mg of sample. The sample was dried at 60° C. until the loss rate of 0.0005 wt %/min was obtained for 10 minutes. The sample was tested at 25° C. and 3 or 4, 5, 15, 25, 35, 45, 50, 65, 75, 85, and 95% RH. Equilibration at each RH was reached when the rate of 0.0003 wt %/min for 35 minutes was achieved or a maximum of 600 minutes.

[3] = Salt screen and crystalline salt characterization; assay type: physicochemical; settings: for hygroscopicity: ambient temperature and relative humidity conditions, Hemisulfate Salt
Experimental: High throughput crystallization was employed to screen for the formation of crystalline salts of Compound (I). The screening examined acid type, acid level (equivalents), and/or type of crystallization solvent. Each plate contained 96 well plates (8 rows of 12 columns per plate).
A solution was prepared by dissolving 400 mg of Compound (I) in a mixture of 36 ml THF and 4 mL H2O. The solution ([…]) was transferred to 24 vials. To each vial was added 0.25 M EtOH stock solutions of the following acids:
The content of each vial was transferred to 12 crystallization wells and evaporated to dryness. Upon evaporation, each well was charged with 100 μl of solvent using a robotic liquid handler. The following crystallization solvents were tested: methyl isobutyl ketone (MIBK), ethyl acetate, toluene, THF, acetonitrile, acetone, isopropanol, ethanol, methanol, 1,2-dichloroethylene, isopropanol/water (50:50), and water. Next, the plates were sealed with Teflon septa and subjected to temperature cycling. The plates were maintained at 50° C. for 10 hours and then allowed to cool to room temperature over a period of 14 hours. After the heating/cooling cycle, the contents of the wells were characterized by birefringent imaging. Perceived crystalline hits were further characterized by PXRD analysis.

[4] = Water activity studies between crystalline forms; assay type: physicochemical
Experimental: Form P22C: prepared by heating Form H1.5-1 at 60° C. for 2 hours or at 75° C. for 5 minutes.
Form P33: Form H1.5-1 converted to Form P33 between 50° C. and 75° C. in variable temperature PXRD experiment. Also observed after Form H1.5-1 was heated to 105° C. for 5 minutes, or prepared by slurring dry powder Form H1.5-1 in dry EtOH or IPAc. […] Form P35: Prepared from slurry of Form H1.5-1 in dry MeOH under molecular sieves (7% RH). Converted to Form P33 when dried at 60° C. Stability in Water Slurry

[5] = Stability in water slurry; assay type: physicochemical; settings: room temperature, two days
Experimental: An aqueous slurry of Example 1 was prepared and stored at room temperature.

[6] = In vivo pharmacokinetic study in humans with and without famotidine pretreatment; settings: for AUC(0-inf) / Cmax / half-life / Tmax: human, plasma; for AUC(0-inf) / Cmax / half-life / Cl/F: (%); for Tmax: read-out: Tmax Median
Experimental: An in vivo study was conducted comparing the pharmacokinetics of the free base Compound (I) in humans pretreated with 40 mg of famotidine with non-pretreated humans.
Compound (I) in human EDTA plasma was analyzed using liquid-liquid extraction with uHPLC-MS/MS detection on a Triple Quad 5500 mass spectrometer. The method utilized stable isotope labeled [^13C2, D4]-Compound (I) as the internal standard. After the addition of 50 μL of 100 ng/mL [^13C2, D4]-Compound (I) in MeOH:water (20/80) and of 50 μL 1M NH4OAc containing 4% acetic acid buffer solution to 0.100 mL of each study sample, quality control (QC) sample, and calibration standard, the samples were extracted with 600 μL methyl tert-butyl ether (MTBE) by shaking for 15 min. A 450 μL portion of the organic layer was removed and evaporated to dryness. The residue was reconstituted in 200 μL of the reconstitution solution (30% acetonitrile in 10 mM NH4OAc with 0.01% acetic acid). All liquid transfer steps were performed using a Perkin Elmer JANUS Mini® liquid handler except for the addition of the internal standard solution. A 10 μL aliquot of the extracted sample was injected to uHPLC-MS/MS system. The uHPLC was performed on a LEAP 4X Ultra uHPLC system with LEAP HTC PAL autosampler. Mobile phase A contained 10 mM NH4OAc and 0.01% acetic acid in ACN/water (10:90), and mobile phase B contained 10 mM NH4OAc and 0.01% acetic acid in ACN/water (90:10). Chromatographic separation was achieved on an Acquity® uHPLC BEH C18 column (1.7 μm, 2.1×50 mm) with an isocratic elution from 0-1.5 min consisted of 28% Mobile Phase B for analysis of Compound (I), then with a gradient elution consisted of a linear increase from 28% B to 100% B in 0.1 min, then maintaining it at 100% B for 1.1 min for washing out the column. The gradient was then returned to 28% B within 0.1 min, and maintained at 28% for 0.9 min with a total run time of 3.7 min. The flow rate was 0.6 mL/min and column temperature was maintained at 60° C. condition. Detection was accomplished using an AB Sciex Triple Quad 5500 mass spectrometer in positive ESI with turbo ion spray ionization and using multiple reaction monitoring (MRM) mode. The MRM transitions were m/z 535→256 for Compound (I) and m/z 541→256 for [^13C2, D4]-Compound (I). Data acquisition and quantiation were performed using AB Sciex Analyst® 1.5.1 software. The standard curve, which ranged from 0.500-500 ng/ml for Compound (I), was fitted to a 1/x2 weighted linear regression model. During sample analysis, four levels of analytical quality control (QC) samples representing low, geometric-mean, medium, and high concentrations of Compound (I) prepared in human EDTA plasma were analyzed in 4 replicates at each concentration level for each analytical run. The results from these QC samples were used to accept or reject the analytical runs containing study samples based on the acceptance criteria established a priori for the analysis of Compound (I) in human EDTA plasma.

[7] = Dissolution rate in aqueous medium; assay type: physicochemical; settings: pH 1 and 5 versus pH 7
Description: The dissolution rate of Compound (I) is dependent on the pH of the aqueous medium. […] The normal pH of the stomach is 1.2 to 1.8 according to […], Clinical Analysis, Chapter 32, in Remington: The Science and Practice of Pharmacy 20th Edition, A. R. Gennaro, editor; 2000, Lippinocott Williams & Wilkins, Baltimore, Md. However, patients often take other medications that can raise the pH of the stomach, including antacids, proton pump inhibitors, and H2-receptor antagonists such as famotidine, which can lower the dissolution rate of Compound (I).

[8] = 25 RH/60° C. (first line, r9), 2 weeks
[9] = 25 RH/60° C. (first line, r9), 4 weeks
[10] = 25 RH/60° C. (first of three lines printed alike, r9), 1 week
[11] = 25 RH/60° C. (second line, r11), 1 week
[12] = 25 RH/60° C. (second line, r11), 2 weeks
[13] = 25 RH/60° C. (second line, r11), 4 weeks
[14] = 25 RH/60° C. (third line, r13), 1 week
[15] = 25 RH/60° C. (third line, r13), 2 weeks
[16] = 25 RH/60° C. (third line, r13), 4 weeks
[17] = HIL/UV (high-intensity light/ultraviolet), 1 week
[18] = HIL/UV (high-intensity light/ultraviolet), 2 weeks
[19] = humans, 150 mg Compound (I) oral with 40 mg Famotidine pretreatment
[20] = humans, 150 mg Compound (I) oral, no pretreatment
[21] = humans, 150 mg with 40 mg Famotidine relative to no pretreatment

N[C@@H]1c2cccnc2[C@H](OC(=O)N2CCC(n3c(=O)[nH]c4ncccc43)CC2)CC[C@H]1c1cccc(F)c1F [Example 1, (5S,6S,9R)-5-Amino-6-(2,3-difluorophenyl)-6,7,8,9-tetrahydro-5H-cyclohepta[b]pyridin-9-yl-4-(2-oxo-2,3-dihydro-1H-imidazo[4,5-b]pyridin-1-yl) piperidine-1-carboxylate, Hemisulfate Salt]
% potency [1, 8]: 96.8%
% total impurities [1, 8]: 0.27%
% potency [1, 9]: 96.9%
% total impurities [1, 9]: 0.27%
% potency [1, 10]: 94.4%
% total impurities [1, 10]: 0.27%
% potency [1, 11]: 95.1%
% total impurities [1, 11]: 0.27%
% potency [1, 12]: 98.5%
% total impurities [1, 12]: 0.27%
% potency [1, 13]: 97.0%
% total impurities [1, 13]: 0.27%
% potency [1, 14]: 101.6%
% total impurities [1, 14]: 0.28%
% potency [1, 15]: 102.6%
% total impurities [1, 15]: 0.27%
% potency [1, 16]: 110.0%
% total impurities [1, 16]: 0.27%
% potency [1, 17]: 100.7%
% total impurities [1, 17]: 0.27%
% potency [1, 18]: 96.9%
% total impurities [1, 18]: 0.27%
% potency ([1]; Initial): 98.5%
% total impurities ([1]; Initial): 0.27%
% potency ([1]; Refrigerated, 1 week): 98.0%
% total impurities ([1]; Refrigerated, 1 week): 0.29%
% potency ([1]; Refrigerated, 2 weeks): 96.5%
% total impurities ([1]; Refrigerated, 2 weeks): 0.27%
% potency ([1]; Refrigerated, 4 weeks): 105.7%
% total impurities ([1]; Refrigerated, 4 weeks): 0.27%
solid state stability ([1]; tested temperature and relative humidity conditions, four weeks of storage): stable under the tested storage conditions
moisture sorption weight gain ([2]; between 5% and 95% relative humidity): 2.8 weight %
moisture sorption weight gain ([2]; between 25% and 75% relative humidity): 0.8 weight %
hygroscopicity ([2]; moisture sorption isotherm at 25° C.): low or non-hygroscopic
hygroscopicity ([3]; listed as Sulfuric acid): low/non-
hygroscopicity ([3]; listed as hemisulfate salt of Compound (I)): low hygroscopicity
chemical stability ([3]; crystalline salt): chemically stable
physical stability ([3]; crystalline salt): physically stable
relative stability of crystalline forms ([4]; Form H1.5-1 versus Form P22C): more stable at >23% relative humidity
relative stability of crystalline forms ([4]; Form H1.5-1 versus Form P33): more stable at >23% relative humidity
chemical degradation in aqueous slurry [5]: no significant chemical degradation
stability of crystalline form in aqueous slurry (PXRD) [5]: stable in the aqueous slurry

N[C@@H]1c2cccnc2[C@H](OC(=O)N2CCC(n3c(=O)[nH]c4ncccc43)CC2)CC[C@H]1c1cccc(F)c1F [Compound (I), (5S,6S,9R)-5-amino-6-(2,3-difluorophenyl)-6,7,8,9-tetrahydro-5H-cyclohepta[b]pyridin-9-yl-4-(2-oxo-2,3-dihydro-1H-imidazo[4,5-b]pyridin-1-yl)piperidine-1-carboxylate]
AUC(0-inf) [6, 19]: 3060 ng·h/mL
Cmax [6, 19]: 259 ng/mL
half-life [6, 19]: 12.6 h
Tmax [6, 19]: 3 h
AUC(0-inf) [6, 20]: 7200 ng·h/mL
Cmax [6, 20]: 991 ng/mL
half-life [6, 20]: 12 h
Tmax [6, 20]: 2.5 h
change in AUC and Cmax ([6]; humans pretreated with 40 mg of famotidine compared to non-pretreated humans): significant reduction
Cl/F [6, 19]: 49 (28%) L/hr
Cl/F [6, 20]: 20.84 (75%) L/hr
F (AUCinf) [6, 21]: 42.5% (96%)
F (Cmax) [6, 21]: 26.2% (130%)
dissolution rate [7]: higher dissolution rate at pH values of 1 and 5 than at a pH value of 7
